Earlier results in patent US20230383297A1, “NOVEL TARGETS FOR REACTIVATION OF PRADER-WILLI SYNDROME-ASSOCIATED GENES” (Duke University, priority 2020, published 2023).

Test system: PWS cells
Conditions: also causes DNA demethylation genome-wide

Nc1ncn([C@H]2C[C@H](O)[C@@H](CO)O2)c(=O)n1 [5-Aza-DC]
maternal gene expression from the PWS locus: reactivate maternal gene expression from the PWS locus
